Reference: ChEMBL document CHEMBL1132558, “A new single-photon emission computed tomography imaging agent for serotonin transporters: [123I]IDAM, 5-iodo-2-((2-((dimethylamino)methyl)phenyl)thio)benzyl alcohol” (J Med Chem, 1999)

Legend:
Rattus norvegicus [1] = species on record: Rattus norvegicus; assay: Concentration inhibiting norepinephrine uptake in rat brain synaptosomes.; type: functional
Rattus norvegicus [2] = species on record: Rattus norvegicus; assay: Concentration inhibiting serotonin uptake in rat brain synaptosomes.; type: functional
[3] = target: T1, Sodium-dependent dopamine transporter (Homo sapiens, UniProt Q01959); assay: In vitro binding affinity against Dopamine transporter in LLC-PK1 cell membranes.; type: cell-based, Sus scrofa
T1 sequence (Q01959 whole entry): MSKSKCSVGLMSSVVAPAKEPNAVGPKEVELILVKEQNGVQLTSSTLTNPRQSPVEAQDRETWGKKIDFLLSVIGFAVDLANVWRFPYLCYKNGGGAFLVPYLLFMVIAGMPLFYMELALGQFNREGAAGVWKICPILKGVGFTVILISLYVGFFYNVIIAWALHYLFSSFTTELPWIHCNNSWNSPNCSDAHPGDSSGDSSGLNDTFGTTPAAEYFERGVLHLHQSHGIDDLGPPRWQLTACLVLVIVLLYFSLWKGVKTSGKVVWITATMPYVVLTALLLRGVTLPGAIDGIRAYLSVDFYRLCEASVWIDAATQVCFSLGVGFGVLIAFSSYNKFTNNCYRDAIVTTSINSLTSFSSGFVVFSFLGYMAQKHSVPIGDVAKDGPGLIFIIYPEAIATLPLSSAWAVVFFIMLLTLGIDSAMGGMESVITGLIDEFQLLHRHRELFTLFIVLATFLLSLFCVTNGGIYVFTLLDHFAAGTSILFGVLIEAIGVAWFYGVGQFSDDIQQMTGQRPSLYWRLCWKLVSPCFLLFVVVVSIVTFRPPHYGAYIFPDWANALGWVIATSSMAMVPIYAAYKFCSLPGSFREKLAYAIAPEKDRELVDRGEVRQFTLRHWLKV

[4] = target: Sodium-dependent serotonin transporter (Homo sapiens, UniProt P31645); assay: In vitro binding affinity against Serotonin transporter (SERT) from LLC-PK1 cell membranes.; type: cell-based, Sus scrofa
Chain of Sodium-dependent serotonin transporter (P31645 whole entry): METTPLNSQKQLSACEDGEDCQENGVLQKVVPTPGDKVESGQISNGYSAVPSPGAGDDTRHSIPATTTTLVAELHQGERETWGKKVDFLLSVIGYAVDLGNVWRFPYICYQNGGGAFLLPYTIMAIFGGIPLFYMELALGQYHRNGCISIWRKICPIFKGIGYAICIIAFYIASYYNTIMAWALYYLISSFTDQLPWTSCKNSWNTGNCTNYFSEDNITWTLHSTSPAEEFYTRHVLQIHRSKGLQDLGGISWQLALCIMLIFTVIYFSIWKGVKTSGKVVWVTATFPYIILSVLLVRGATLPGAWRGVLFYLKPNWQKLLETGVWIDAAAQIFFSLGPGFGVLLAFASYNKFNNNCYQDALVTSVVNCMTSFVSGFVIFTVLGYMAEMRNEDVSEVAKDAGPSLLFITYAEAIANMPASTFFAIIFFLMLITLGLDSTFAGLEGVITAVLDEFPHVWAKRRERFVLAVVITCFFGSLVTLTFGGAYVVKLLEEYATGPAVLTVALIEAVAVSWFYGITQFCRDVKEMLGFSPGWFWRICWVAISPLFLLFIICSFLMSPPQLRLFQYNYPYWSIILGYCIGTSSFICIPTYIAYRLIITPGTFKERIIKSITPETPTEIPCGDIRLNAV

Rattus norvegicus [5] = species on record: Rattus norvegicus; assay: Concentration inhibiting 5-HT reuptake in rat brain synaptosomes.; type: functional
[6] = target: T1, Sodium-dependent dopamine transporter; assay: Concentration inhibiting Dopamine transporter

Row | Ki (Rattus norvegicus [1]) | Ki (Rattus norvegicus [2]) | Ki [3] | Ki [4] | Ki (Rattus norvegicus [5]) | Ki [6] | SMILES
1 | 55 nM | 2.1 nM | – | – | – | – | CN(C)Cc1ccccc1Sc1ccc(Cl)cc1CO
2 | – | – | > 10 µM | 0.52 nM | – | – | CN(C)Cc1ccccc1Sc1ccc(Br)cc1CO
3 | – | – | 0.112 µM | – | 0.4 nM | 23.5 nM | CSc1ccc([C@H]2CN3CCC[C@H]3c3ccccc32)cc1
4 | – | – | > 10 µM | 0.097 nM | – | – | CN(C)Cc1ccccc1Sc1ccc(I)cc1CO
